Active and inactive are the calls of the source.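 Rule for the calls: active = compounds that block purified firefly luciferase enzyme with half-maximal potency below 20 µM; inactive = the rest.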
Target: Luciferin 4-monooxygenase (Photinus pyralis) (UniProt P08659)
Assay: firefly luciferase inhibitors or activators, profiling panel, counter-screen for EBNA-1 inhibitor project, biochemical, qHTS, purified enzyme, Km substrates, luminescence (AID 588498)
Details: purified FLuc

Luciferin 4-monooxygenase (Photinus pyralis), sequence (P08659 whole entry, looked up): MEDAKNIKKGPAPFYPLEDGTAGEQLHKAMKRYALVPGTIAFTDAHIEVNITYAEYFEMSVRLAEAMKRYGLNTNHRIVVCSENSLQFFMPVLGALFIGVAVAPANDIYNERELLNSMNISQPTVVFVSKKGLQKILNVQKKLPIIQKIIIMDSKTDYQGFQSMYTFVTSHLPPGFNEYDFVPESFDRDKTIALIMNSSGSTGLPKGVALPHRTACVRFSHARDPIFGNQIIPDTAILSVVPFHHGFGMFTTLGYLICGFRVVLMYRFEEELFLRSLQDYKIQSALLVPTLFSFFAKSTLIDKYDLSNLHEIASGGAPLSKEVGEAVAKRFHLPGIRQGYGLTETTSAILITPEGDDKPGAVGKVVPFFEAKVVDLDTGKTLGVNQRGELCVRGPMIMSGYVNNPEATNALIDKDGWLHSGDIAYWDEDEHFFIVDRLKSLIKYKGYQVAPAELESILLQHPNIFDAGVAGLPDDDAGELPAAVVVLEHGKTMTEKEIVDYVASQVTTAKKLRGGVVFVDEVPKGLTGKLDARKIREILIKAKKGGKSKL

Compound	AC50
CS(=O)(=O)c1ccc2nc(NC(=O)c3cccc(F)c3)sc2c1	0.366 µM
Nc1c(C(=O)Nc2ccc3c(c2)OCCO3)nnn1Cc1cccc(Cl)c1	3.26 µM
CS(=O)(=O)c1ccc2nc(NC(=O)c3ccccc3Cl)sc2c1	3.26 µM
COCCn1c(C)cc(C(=O)CSc2nnnn2-c2ccccc2)c1C	1.63 µM
COc1ccc2nc(NC(=O)c3ccc(C)c(C)c3)sc2c1	0.651 µM
COc1ccc(C(=O)Nc2nc3ccc(S(C)(=O)=O)cc3s2)cc1	2.59 µM
Cc1ccccc1C(=O)Nc1nc2ccc(S(C)(=O)=O)cc2s1	6.51 µM
COc1ccc(Cn2nnc(C(=O)Nc3ccc4c(c3)OCCO4)c2N)cc1	2.91 µM
Cc1ccc(C(=O)Nc2nc3ccc(S(C)(=O)=O)cc3s2)cc1	1.83 µM
Cc1cccc(-n2nnnc2SCC(=O)c2cc(C)n(CC3CCCO3)c2C)c1 (centres undefined)	18.3 µM
Cc1ccc(-n2nnnc2SCC(=O)c2cc(C)n(CC3CCCO3)c2C)cc1 (centres undefined)	6.51 µM
Cc1cc(C(=O)CSc2nnnn2-c2ccccc2)c(C)n1CC1CCCO1 (centres undefined)	2.06 µM
Cc1ccccc1NC(=O)c1nnn(Cc2cccc(Cl)c2)c1N	> 30 µM (inactive)
Cc1cccc(C(=O)Nc2nc3ccc(S(C)(=O)=O)cc3s2)c1	2.91 µM
Cc1ccccc1-n1nnnc1SCC(=O)c1cc(C)n(CC2CCCO2)c1C (centres undefined)	2.91 µM
Nc1c(C(=O)Nc2cccc(C(F)(F)F)c2)nnn1Cc1cccc(Cl)c1	> 30 µM (inactive)
Nc1c(C(=O)Nc2ccc3c(c2)OCCO3)nnn1Cc1cccc(C(F)(F)F)c1	20.6 µM
COc1cccc(Cn2nnc(C(=O)Nc3ccc4c(c3)OCCO4)c2N)c1	4.11 µM
Cc1ccc(C(=O)Nc2nc3ccc(S(C)(=O)=O)cc3s2)cc1C	5.8 µM
